# What was measured:
# wild type p97 = wild type p97 (Mus musculus, UniProt Q01853); experiment: ATP Kinase glo assay of p97 ATPase activity; format: biochemical
# Method: An assay that measures the ATPase activity of p97 and that is amenable to high-throughput screening (HTS) was developed based on the commercially-available “Kinase-Glo” assay format, wherein the ATP hydrolytic activity of p97 is monitored by using luciferase to measure the level of residual ATP in a sample following incubation with p97. Using this assay, circa 16,000 compounds were screened to evaluate their effect on the ATP hydrolysis activity of p97. This effort yielded several candidates that inhibit p97 activity. Among the compounds that were identified, one that was of particular interest was compound 8 (9-(2-nitrovinyl) anthracene shown below:
# It was shown that a key feature of compound 8 is that its mode of inhibition is dependent upon the presence of a cysteine at position 522 in the D2 domain of p97.
# HeLa cells = experiment: Accumulation of high molecular weight ubiquitin conjugates (anti-ubiquitin immunoblot), HeLa cells; format: cell-based; details: 1 h at 37° C.
# From the text: (§1) To evaluate whether compound 2 can target p97 activity in cells, we sought to determine whether this compound induces accumulation of high molecular weight ubiquitin conjugates, since it is known that RNAi-mediated knockdown of p97 in mammalian cells has this effect (Wojcik, C. et al. J. Cell Sci. (2004) 117, 281-292). As a positive control for this experiment, the proteasome inhibitor MG132 was used. […] The cells were then harvested, lysed, and centrifuged to generate soluble and insoluble fractions. These fractions were then immunoblotted with anti-ubiquitin antibodies to detect accumulation of high molecular weight conjugates. Blots were also probed with anti-PSTAIRE antibodies as a loading control. […] This effect is particularly pronounced in the insoluble fraction.
# (§2) To evaluate whether compound 8 can target p97 activity in cells, it was determined whether this compound induces accumulation of high molecular weight ubiquitin conjugates, since it is known that RNAi-mediated knockdown of p97 in mammalian cells has this effect (Wojcik, C. et al. J. Cell Sci. (2004) 117, 281-292). The proteasome inhibitor bortezomib (velcade) was employed as a positive control for this experiment. HeLa (FIG. 25) or RPMI8226 (FIG. 26) cells were treated with Velcade, compound 8, or a combination thereof for 1 h at 37° C. The cells were then harvested and cell lysates were immunoblotted with anti-ubiquitin antibodies to detect accumulation of high molecular weight conjugates. Blots were also probed with anti-PSTAIRE antibodies as a loading control.
# RPMI8226 cells = experiment: Accumulation of high molecular weight ubiquitin conjugates (anti-ubiquitin immunoblot), RPMI8226 cells; format: cell-based; details: 1 h at 37° C.
# From the text: as §1, §2
# Ub-G76V-GFP/HeLa cells = experiment: Degradation of pre-accumulated Ub-G76V-GFP (cycloheximide chase after MG132 washout); format: cell-based; details: for % K: relative to 0 μM
# Method: To evaluate this possibility, an assay was developed to determine the rate of degradation of pre-accumulated Ub-G76V-GFP molecules. […] Cells were then washed with PBS three times remove the MG132. Cells were then refreshed by adding DMEM containing cycloheximide (50 μg/mL; to block production of more Ub-G76V-GFP) and test compounds (0˜10 μM) were added into cells. Eight 96-well plates were prepared and one of the plates was imaged at 25, 50, 70, 100, 110, 125, 145, or 170 min after washing with PBS three times. After washing out MG132, degradation of pre-accumulated Ub-G76V-GFP appears to follow pseudo-first order reaction. Rate constant (K; 1/min) can be determined from the slope of plotting Ln (Fold Accumulation) versus Time (min) (see FIG. 17 and FIG. 18).
# Ub-G76V-GFP/HeLa cells were treated with MG132 (2 μM) for 1 h and washed with PBS three times. DMEM containing cycloheximide (50 μg/mL) and compound 8 (0-10 μM) was added into cells. Eight 96-well plates were prepared and one of the plates was imaged at 25, 50, 70, 100, 110, 125, 145, or 170 min after washing with PBS three times.
# MRC5-SV40 = experiment: CellTiter-Glo growth inhibition, MRC5 cells engineered to express SV40; format: cell-based
# [1] = system: HEK293 cells that stably expressed TCR-GFP; experiment: Accumulation of ERAD reporter TCR-alpha-GFP; format: cell-based; details: 2 h at 37° C., fluorescence microscopy
# Method: Since p97 has a well-established role in ERAD, it was also determined whether compound 2 affects the accumulation of an ERAD-reporter, TCR-alpha-GFP. HEK293 cells that stably expressed TCR-GFP were treated with MG132 (see FIG. 19), compound 1 or compound 2 (FIG. 20) at the indicated concentrations for 2 h at 37° C. prior to being imaged by fluorescence microscopy to determine TCR-GFP accumulation. […] It was thus concluded that compound 2 inhibits p97 in cells, resulting in the accumulation of both soluble and insoluble high molecular weight ubiquitin conjugates and UPS substrates whose degradation depends upon p97.
# HEK293 cells that stably expressed TCR-GFP were treated with the Velcade (FIG. 30) or compound 8 (FIG. 31) at the indicated concentrations for 2 h at 37° C. prior to being imaged by fluorescence microscopy to quantify TCR-GFP accumulation.
# MRC5-WT = experiment: CellTiter-Glo growth inhibition, parental MRC5 cells; format: cell-based; details: Homo sapiens, 48 h at 37° C., read-out: Cell line inhibition of growth GI50 MRC5-WT
# [2] = system: HeLa cell line that stably expresses UbG76V-GFP; experiment: Accumulation of UbG76V-GFP in HeLa cells (fluorescence microscopy); format: cell-based; details: 1 h at 37° C., fluorescence microscopy
# Method: As a control, the same cells were treated with the proteasome inhibitor MG132. In the latter set of experiments, a HeLa cell line that stably expresses UbG76V-GFP was transfected with either wild type (WT), D1 mutant (E305Q), D2 mutant (E578Q) or E305Q, E578Q double mutant (QQ) murine 97-pcDNA4.1 plasmid (0.05 μg/100 μL) in a 96-well plate. After 23 h, the intensity of UbG76V-GFP signal was measured on a Molecular Devices ImageXpress automated fluorescence microscope. […] The direct accumulation of Ub-G76V-GFP caused by compound 2 at 25 μM is 4-fold less than that caused by MG132 at 2 μM. This is likely due to the fact that only fully folded Ub-G76V-GFP should require p97 for degradation by the proteasome.
# As a second test of whether compound 8 can inhibit p97 in vivo, it was evaluated whether it can cause accumulation of the UbG76V-GFP reporter. A HeLa cell line that stably expresses UbG76V-GFP was treated with compound 8 for 1 h at 37° C., and was then evaluated by fluorescence microscopy. As a control, the same cells were treated with the proteasome inhibitor MG132. […] The level of GFP fluorescence was quantified in cells treated with compound 8 at different doses and for different periods of time (FIG. 28).
# wild type p97, sequence (Q01853 whole entry): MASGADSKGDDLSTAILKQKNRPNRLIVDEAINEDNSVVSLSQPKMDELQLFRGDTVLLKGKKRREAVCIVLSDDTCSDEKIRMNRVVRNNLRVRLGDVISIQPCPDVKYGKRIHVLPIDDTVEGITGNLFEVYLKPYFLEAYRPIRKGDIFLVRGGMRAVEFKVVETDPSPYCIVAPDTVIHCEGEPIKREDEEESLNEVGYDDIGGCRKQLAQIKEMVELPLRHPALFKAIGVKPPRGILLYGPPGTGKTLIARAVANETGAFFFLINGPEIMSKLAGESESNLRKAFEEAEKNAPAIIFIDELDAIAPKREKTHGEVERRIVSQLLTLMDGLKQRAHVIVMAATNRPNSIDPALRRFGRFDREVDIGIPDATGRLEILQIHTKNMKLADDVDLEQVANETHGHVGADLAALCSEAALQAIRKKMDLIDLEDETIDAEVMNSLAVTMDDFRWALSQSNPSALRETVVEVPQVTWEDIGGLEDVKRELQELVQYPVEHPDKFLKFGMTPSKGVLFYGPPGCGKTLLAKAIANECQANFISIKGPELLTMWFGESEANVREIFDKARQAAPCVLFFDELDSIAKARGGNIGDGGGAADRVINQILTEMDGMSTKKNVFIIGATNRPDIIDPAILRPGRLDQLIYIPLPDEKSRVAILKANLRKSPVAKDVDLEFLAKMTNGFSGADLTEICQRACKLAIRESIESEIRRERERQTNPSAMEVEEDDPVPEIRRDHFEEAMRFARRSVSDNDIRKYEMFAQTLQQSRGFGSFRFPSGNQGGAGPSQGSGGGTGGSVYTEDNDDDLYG
compound,measurement,setting,value
"O=[N+]([O-])C=Cc1c2ccccc2cc2ccccc12 [Compound 8, 9-(2-nitrovinyl) anthracene]",inhibition of wild type p97 compared with the C522A-p97 mutant,wild type p97,significantly greater degree
same,"accumulation of high molecular weight ubiquitin conjugates, HeLa cells",HeLa cells,caused accumulation of high molecular weight ubiquitin conjugates
same,"accumulation of high molecular weight ubiquitin conjugates, RPMI8226 cells",RPMI8226 cells,caused accumulation of high molecular weight ubiquitin conjugates
same,"K, rate constant of Ub-G76V-GFP degradation",Ub-G76V-GFP/HeLa cells; 0.01 μM,0.034 min⁻¹
same,% K,Ub-G76V-GFP/HeLa cells; 0.01 μM,89%
same,"K, rate constant of Ub-G76V-GFP degradation",Ub-G76V-GFP/HeLa cells; 0.04 μM,0.033 min⁻¹
same,% K,Ub-G76V-GFP/HeLa cells; 0.04 μM,87%
same,"K, rate constant of Ub-G76V-GFP degradation",Ub-G76V-GFP/HeLa cells; 0.16 μM,0.032 min⁻¹
same,% K,Ub-G76V-GFP/HeLa cells; 0.16 μM,85%
same,"K, rate constant of Ub-G76V-GFP degradation",Ub-G76V-GFP/HeLa cells; 0.63 μM,0.031 min⁻¹
same,% K,Ub-G76V-GFP/HeLa cells; 0.63 μM,81%
same,"K, rate constant of Ub-G76V-GFP degradation",Ub-G76V-GFP/HeLa cells; 2.5 μM,0.027 min⁻¹
same,% K,Ub-G76V-GFP/HeLa cells; 2.5 μM,71%
same,"K, rate constant of Ub-G76V-GFP degradation",Ub-G76V-GFP/HeLa cells; 10 μM,0.023 min⁻¹
same,% K,Ub-G76V-GFP/HeLa cells; 10 μM,60%
same,IC50,"Ub-G76V-GFP/HeLa cells; Homo sapiens, HeLa, 1 h, read-out: IC50 on the decay of Ub-G76V-GFP",10 ± 4 µM
same,GI50,"MRC5-SV40; Homo sapiens, MRC5, 48 h at 37° C., CellTiter-Glo, read-out: Cell line inhibition of growth GI50 MRC5-SV40",5 ± 3 µM
same,greater sensitivity of SV40-transformed cells than WT cell line,MRC5-SV40; MRC5-SV40 vs MRC5-WT GI50,3.4 fold
same,accumulation of TCR-alpha-GFP,[1],"induced accumulation of the ERAD reporter, TCR-alpha-GFP"
same,GI50,MRC5-WT,17 ± 9 µM
same,accumulation of UbG76V-GFP,[2],caused detectable accumulation of UbG76V-GFP
